The text below walks through data of patent publication US6348483B1, “Use of derivatives of methylene-bis-oxazolidine and compositions obtained thereby” (Air Liquide Sante (International), priority 1998, dated 2002).

Type in all cases: cell-based
One assay has as its system Asperg. niger. As to the kind of experiment: Serial dilution test according to DGHM (MIC). Particulars: aqueous 2% by weight strength solution in fully deionized water; unit assumed. The text has this: (§1) Solutions of in each case 2% strength by weight in fully deionized water were examined against selected bacteria and/or yeasts and/or fungi and/or algae using the serial dilution test according to DGHM [German Society for Hygiene and Microbiology]. MIC values of the aqueous 2% by weight strength solutions: […]

The subject of the next assay is Pseudomonas aeruginosa. As to the kind of experiment: Serial dilution test according to DGHM (MIC). Conditions: aqueous 2% by weight strength solution in fully deionized water; unit assumed.
Text: as §1

The test system of another assay is E. coli. As to the kind of experiment: Serial dilution test according to DGHM (MIC). Particulars: aqueous 2% by weight strength solution in fully deionized water; unit assumed.
Text: as §1

The subject of another assay is Fusarium oxysporum. Briefly: Serial dilution test according to DGHM (MIC). Particulars: aqueous 2% by weight strength solution in fully deionized water; unit assumed.
Text: as §1

Another assay concerns Rhodotorula mucilaginosa. Briefly: Serial dilution test according to DGHM (MIC). Particulars: aqueous 2% by weight strength solution in fully deionized water; unit assumed.
Text: as §1

Another assay relates to Alternaria alternata. Briefly: Serial dilution test according to DGHM (MIC). Particulars: aqueous 2% by weight strength solution in fully deionized water; unit assumed.
Text: as §1

The next assay concerns Penicillium funiculosum. Briefly: Serial dilution test according to DGHM (MIC). Particulars: aqueous 2% by weight strength solution in fully deionized water; unit assumed.
Text: as §1

In the next assay the test system is Chlorella fusca. As to the kind of experiment: Serial dilution test according to DGHM (MIC). Particulars: aqueous 2% by weight strength solution in fully deionized water; unit assumed.
Text: as §1

The subject of another assay is Cand. albicans. As to the kind of experiment: Serial dilution test according to DGHM (MIC). Conditions: aqueous 2% by weight strength solution in fully deionized water; unit assumed.
Text: as §1

For a further assay, the system named is Chlorella fusca (CF). As to the kind of experiment: Algistatic finish (SM 023) of pure acrylate house paint. Details: key to Surface colonization: −: no growth; +: some growth; ++: moderate growth; +++: strong growth. On the procedure: In separate batches, the test concentrations of the active compounds/products were incorporated into the house paint, and the fungicidal and/or algistatic finish was determined using the stated test methods.
Incorporation and testing were carried out according to the methods SM 022 and SM 023 below.
This laboratory method was employed for determining the resistance of house coatings to colonization by algae. For this method, house coatings on standardized paper are used as test substrate and Chlorella fusca is used as test alga. It is furthermore possible to use pure cultures of other algae species of practical relevance.
The experiments were carried out in Petri dishes on agar nutrient media.
50 g of the material to be finished were, in separate batches, mixed with various concentrations of the algicide to be examined and homogenized for 3-5 min using a basket stirrer.
Paper carrier materials having the dimensions 90×270 mm (Schleicher & Schüll No. 2589 B/X 24078) were coated with the test material. The paint and/or render samples were coated to a wet-layer thickness of 250 μm by knife coating. […] In the case of renders, the layer thickness depends, as in practice, on the particle size. The coated carrier materials, hereinbelow referred to as test bodies, were subsequently dried in a horizontal position for five days.
[…] The cross section of the container for the watering in the direction of flow was 1000±500 cm^2.
From the pretreated test bodies, three sample bodies having a diameter of 5 cm were punched out and sterilized in a Co^60 source using at least 10 kGy.
Aseptically, the samples were placed onto the algae nutrient media, and the centre of the sample was inoculated with 5 ml of each algae suspension.
The mixture of the algae suspensions was spread on the surface using a Drigalski spatula or an offset sterile glass rod.
During the growth phase at 22±2° C., the coated samples in the Petri dishes were irradiated with light of an intensity of about 1000 Lux (customary fluorescent tubes, type D 67 daylight). A cycle of in each case 12 hours of irradiation and 12 hours of storage in the dark was used.
The colonization of the samples by algae was examined and evaluated after two weeks. Evaluation was carried out visually. The evaluation of the samples was based on the following evaluation scale:
No growth of algae on the test bodies
Formation of an inhibitory zone or growth of algae on the nutrient medium up to the edge of the test bodies
Visible colonization of the test body by algae

Setting [1] is: without stress due to 72 hours leaching (so in the source), use concentration 0.5%.
[2] abbreviates: without stress due to 72 hours leaching (so in the source), use concentration 1.0%.
Setting [3] is: without stress due to 72 hours leaching (so in the source), use concentration 2.0%.
Setting [4] is: without stress due to leaching, use concentration 0.5%.
Where [5] appears, read: without stress due to leaching, use concentration 1.0%.
Setting [6] is: without stress due to leaching, use concentration 2.0%.

Converted amounts (≈) assume the structure as drawn.

In the case of `CC1CN(CN2COC(C)C2)CO1` (centres unmarked) [Mar 71, 3,3′-methylenebis-(5-methyloxazolidine)], the MIC value AN in the assay with Asperg. niger turned out to be 6.25 µg/mL (≈ 33.6 µM). This compound yielded an MIC value PS against Pseudomonas aeruginosa of 6.25 µg/mL (≈ 33.6 µM). The compound further had an MIC value EC against E. coli of 6.25 µg/mL (≈ 33.6 µM). The MIC value FO in the assay with Fusarium oxysporum was determined as 1.56 µg/mL (≈ 8.38 µM). Also, the MIC value RM with Rhodotorula mucilaginosa came to 3.12 µg/mL (≈ 16.8 µM). Besides, in the assay on Alternaria alternata, the MIC value AL came out at 6.25 µg/mL (≈ 33.6 µM). The MIC value PF in the assay with Penicillium funiculosum came out at 1.56 µg/mL (≈ 8.38 µM). The same compound registered an MIC value CF in the assay with Chlorella fusca of 0.39 µg/mL (≈ 2.09 µM). Besides, the MIC value CA against Cand. albicans is > 6.25 µg/mL. In addition, the “Algicidal action (in words)” value in the assay on Chlorella fusca (CF) (with stress due to leaching) was “little algicidal action in practice”. The Inhibitory zone in the assay with Chlorella fusca (CF) (setting [1]) is 0 mm; in the assay on Chlorella fusca (CF) (setting [2]), 0 mm; with Chlorella fusca (CF) (setting [3]), 0 mm; in the assay with Chlorella fusca (CF) (setting [4]), 12 mm; in the assay with Chlorella fusca (CF) (setting [5]) it was >18 mm; in the assay on Chlorella fusca (CF) (setting [6]), >18 mm. Further, the Surface colonization result in the assay with Chlorella fusca (CF) (setting [1]) is given as “++”; in the assay on Chlorella fusca (CF) (setting [2]), “++”; in the assay on Chlorella fusca (CF) (setting [3]), “+++”; in the assay with Chlorella fusca (CF) (setting [4]), “−”; in the assay with Chlorella fusca (CF) (setting [5]) it was “−”; in the assay with Chlorella fusca (CF) (setting [6]), “−”. The “Algicidal activity (in words)” value in the assay on Chlorella fusca (CF) (without stress due to leaching, use concentration from 0.5 to 2% by weight) is reported as “good algicidal activity”.
